In BindingDB's records for patent US20250368634 (SchroDinger, 2025):
pIC50: −log10 of the molar value.

Target: T1, Son of sevenless homolog 1 (Homo sapiens, UniProt Q07889)
T1 sequence (Q07889 whole entry): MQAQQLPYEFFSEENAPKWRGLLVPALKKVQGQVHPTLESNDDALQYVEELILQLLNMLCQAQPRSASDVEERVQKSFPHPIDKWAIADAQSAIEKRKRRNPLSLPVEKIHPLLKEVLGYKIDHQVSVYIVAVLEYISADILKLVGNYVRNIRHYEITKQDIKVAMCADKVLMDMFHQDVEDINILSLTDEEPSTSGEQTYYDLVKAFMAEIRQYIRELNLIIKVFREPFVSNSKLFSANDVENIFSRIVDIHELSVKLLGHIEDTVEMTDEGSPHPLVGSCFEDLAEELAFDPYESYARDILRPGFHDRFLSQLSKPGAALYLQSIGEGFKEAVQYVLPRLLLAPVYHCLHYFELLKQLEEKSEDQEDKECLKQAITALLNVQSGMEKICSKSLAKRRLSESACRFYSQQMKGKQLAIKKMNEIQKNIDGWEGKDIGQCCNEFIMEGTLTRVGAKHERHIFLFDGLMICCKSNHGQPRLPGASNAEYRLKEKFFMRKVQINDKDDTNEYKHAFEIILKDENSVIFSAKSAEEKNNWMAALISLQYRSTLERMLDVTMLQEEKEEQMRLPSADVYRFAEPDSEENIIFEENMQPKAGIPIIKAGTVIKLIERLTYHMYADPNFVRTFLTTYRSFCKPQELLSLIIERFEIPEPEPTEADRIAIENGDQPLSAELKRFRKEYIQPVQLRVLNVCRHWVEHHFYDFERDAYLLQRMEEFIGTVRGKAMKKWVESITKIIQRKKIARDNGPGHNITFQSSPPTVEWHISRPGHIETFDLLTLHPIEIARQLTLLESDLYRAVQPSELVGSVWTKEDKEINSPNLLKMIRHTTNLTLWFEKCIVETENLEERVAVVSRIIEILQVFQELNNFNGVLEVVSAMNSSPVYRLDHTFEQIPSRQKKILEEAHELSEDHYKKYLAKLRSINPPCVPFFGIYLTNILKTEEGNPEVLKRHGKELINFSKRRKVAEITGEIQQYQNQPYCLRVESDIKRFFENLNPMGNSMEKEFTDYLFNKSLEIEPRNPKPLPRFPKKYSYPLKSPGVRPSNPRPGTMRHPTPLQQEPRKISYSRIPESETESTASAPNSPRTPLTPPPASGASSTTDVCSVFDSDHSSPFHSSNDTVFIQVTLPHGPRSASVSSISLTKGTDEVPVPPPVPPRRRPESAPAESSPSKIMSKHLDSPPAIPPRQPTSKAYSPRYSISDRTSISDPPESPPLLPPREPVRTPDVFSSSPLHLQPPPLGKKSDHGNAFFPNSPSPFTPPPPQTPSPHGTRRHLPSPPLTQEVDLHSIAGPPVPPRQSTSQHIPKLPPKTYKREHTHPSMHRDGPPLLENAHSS
Assay: SOS1-KRas (G12C) FRET Assay
Description: Inhibition of the SOS1: KRAS interaction was measured using purified GST-tagged KRAS (res. 1-169, G12C, purified based on Hillig, et al., Proc Natl Acad Sci USA (2019); 116 (7): 2551-2560) and recombinant His10-SOS1 (res. 564-1049; purified based on Hillig, et al.). The final assay was performed at 20 uL with 0.5 nM SOS1 protein and 2.5 nM KRAS protein in a buffer of PBS, 0.1% BSA, 5 mM MgCl2, 0.0025% Igepal, 100 mM KF, 5 mM DTT in a white 384 square well OptiPlate (PerkinElmer, Cat. 6007290). A 2×KRAS working solution was prepared in an assay buffer containing 5 nM GST-KRAS G12C and 2 nM anti-GST-Eu (K) (Cisbio, Cat. 61GSTKLA) and pre-incubated for 15 minutes at 25° C. Compounds were serially diluted in 100% DMSO from 2 mM (positive control, compound I-13, PCT Publ. No. WO2018/115380) or 20 mM and then diluted 1:20 in assay buffer before incubation with a solution of SOS1 protein mixed 1:5 with anti-6His-XL665 FRET […] (Cisbio, Cat. 61HISXL) for 15 minutes at 25° C. before addition of 2×KRAS working solution. The final DMSO concentration is 0.5%. Plates were incubated at RT for 2 hrs before the FRET signal was measured using Envision at emission 665 nm and 615 nm.

C[C@@H](NC(=O)c1cc(N2CCOCC2)c(F)cc1N[C@H]1[C@@H]2CN(C)C[C@@H]21)c1cccc(C(F)F)c1F [US20250368634, Example 55]
pIC50: 7.70
